These results are taken from EP3227262B1, “SULFIDE ALKYL AND PYRIDYL REVERSE SULFONAMIDE COMPOUNDS FOR HBV TREATMENT” (Novira Therapeutics Inc., priority 2014, dated 2016).

Bounds are passed on as bounds.

Experiment [1] relates to HBV. Briefly: Inhibition of HBV replication dot-blot assay in HBV-producing hepatoma cell line. Type of experiment: cell-based. Particulars: Hepatitis B virus, 144 h; activity in Dot-Blot assay; HepG2-2.2.15 cells; reduction in HBV DNA levels, six days. In short, it runs like this: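 HepG2-2.2.15 confluent monolayers were exposed to a compound dilution series for six days, with medium and compound renewed at day 3. HBV DNA in supernatant/lysate was quantified by dot-blot hybridization, and EC50 was derived from dose-response reduction in HBV DNA.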

Experiment [2] deals with HBV. Briefly: HBV replication inhibition assay (encapsidated HBV DNA in supernatant, bDNA QuantiGene). Type of experiment: cell-based. As to conditions: Hepatitis B virus, 144 h, HepG2.2.15 cells, supernatant at day 6, read-out: Extra HBV DNA.

With `CC(O)CCSc1cc(C(=O)Nc2cc(F)c(F)c(F)c2)ccc1F` (racemic) [Compound 18, (±)-4-Fluoro-3-((3-hydroxybutyl)thio)-N-(3,4,5-trifluorophenyl)benzamide], the figures for the EC50 with HBV [1] and in the experiment on HBV [2] were < 10000 nM and 570 nM, respectively.
For the molecule `O=C(Nc1ccc(F)c(Cl)c1)c1ccnc(NS(=O)(=O)C2CCC(O)C2)c1` (racemic) [Compound 186, (±)-N-(3-Chloro-4-fluorophenyl)-2-(3-hydroxycyclopentanesulfonamido)isonicotinamide], the EC50 in the experiment with HBV [1] was < 10000 nM; in the experiment on HBV [2] it was 2700 nM.
On the same counts, the results for `O=C(Nc1cc(F)c(F)c(F)c1)c1ccc(F)c(SC2CCCCC2)c1` [Compound 2, 3-(Cyclohexylthio)-4-fluoro-N-(3,4,5-trifluorophenyl)benzamide] are < 10000 nM and 138 nM.
On to `O=C(Nc1cc(F)c(F)c(F)c1)c1ccc(F)c(SC2CCOCC2)c1` [Compound 4, 4-Fluoro-3-((tetrahydro-2H-pyran-4-yl)thio)-N-(3,4,5-trifluorophenyl)benzamide], for which the EC50 in the experiment with HBV [1] was < 10000 nM; in the experiment with HBV [2] it was 220 nM.
`O=C(Nc1ccc(F)c(Cl)c1)c1ccc(F)c(SCC2(CCO)CC2)c1` [Compound 32, N-(3-Chloro-4-fluorophenyl)-4-fluoro-3-(((1-(2-hydroxyethyl)cyclopropyl)methyl)thio)benzamide]: the EC50 with HBV [1] was < 10000 nM; in the experiment on HBV [2] it was 410 nM.
On the same counts, the results for `O=C(Nc1cc(F)c(F)c(F)c1)c1ccc(F)c(SCC2(CCO)CC2)c1` [Compound 33, 4-Fluoro-3-(((1-(2-hydroxyethyl)cyclopropyl)methyl)thio)-N-(3,4,5-trifluorophenyl)benzamide] are < 10000 nM and 620 nM.
For `O=C(Nc1ccc(F)c(Cl)c1)c1cccc(SC2CCCCC2)c1` [Compound 35, N-(3-Chloro-4-fluorophenyl)-3-(cyclohexylthio)benzamide], the EC50 in the experiment on HBV [1] was < 10000 nM; in the experiment on HBV [2], 1210 nM.
For the molecule `O=C(Nc1ccc(F)c(Cl)c1)c1cccc(SCCO)c1` [Compound 36, N-(3-Chloro-4-fluorophenyl)-3-((2-hydroxyethyl)thio)benzamide], the results for the EC50 with HBV [1] and in the experiment with HBV [2] were < 10000 nM and 1340 nM, respectively.
Regarding `O=C(Nc1ccc(F)c(Cl)c1)c1cccc(SC2CCCC2)c1` [Compound 37, N-(3-Chloro-4-fluorophenyl)-3-(cyclopentylthio)benzamide], the EC50 with HBV [1] was < 10000 nM; in the experiment on HBV [2], 1070 nM.
The corresponding values for `CS(=O)(=O)NC(=O)[C@H]1CC[C@@H](Sc2cc(C(=O)Nc3cc(F)c(F)c(F)c3)ccc2F)CC1` [Compound 100, 4-Fluoro-3-(((1S,4S)-4-((methylsulfonyl)carbamoyl)cyclohexyl)thio)-N-(3,4,5-trifluorophenyl)benzamide] are < 10000 nM and 1700 nM.
Consider `O=C(Nc1ccc(F)c(Cl)c1)c1cccc(NS(=O)(=O)C2CC2)n1` [Compound 123, N-(3-Chloro-4-fluorophenyl)-6-(cyclopropanesulfonamido)picolinamide], for which the values for the EC50 with HBV [1] and in the experiment with HBV [2] were < 10000 nM and 3000 nM, respectively.
With `O=C(Nc1ccc(F)c(Cl)c1)c1ccnc(NS(=O)(=O)C2CC2)c1` [Compound 124, N-(3-Chloro-4-fluorophenyl)-2-(cyclopropanesulfonamido)isonicotinamide], the EC50 is < 10000 nM with HBV [1] and 100 nM in the experiment on HBV [2].
The corresponding values for `O=C(Nc1ccc(F)c(Cl)c1)c1cncc(NS(=O)(=O)C2CC2)c1` [Compound 125, N-(3-Chloro-4-fluorophenyl)-5-(cyclopropanesulfonamido)nicotinamide] are < 10000 nM and 2100 nM.
The corresponding values for `CCc1ccc(CS(=O)(=O)Nc2cc(C(=O)Nc3ccc(F)c(Cl)c3)ccn2)cc1` [Compound 180, N-(3-Chloro-4-fluorophenyl)-2-((4-ethylphenyl)methylsulfonamido)isonicotinamide] are < 10000 nM and 300 nM.
On the same counts, the results for `CCc1ccc(CS(=O)(=O)Nc2cc(C(=O)Nc3ccc(F)c(F)c3)ccn2)cc1` [Compound 181, N-(3,4-Difluorophenyl)-2-((4-ethylphenyl)methylsulfonamido)isonicotinamide] are < 10000 nM and 700 nM.
